Key:
cocklebur = experiment: Test B pre/postemergence cocklebur; type: in vivo, Xanthium strumarium; settings: Preemergence
How it was run: (§1)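 Test chemicals in a non-phytotoxic solvent mixture with surfactant were sprayed preemergence onto planted seeds and postemergence onto plants 2 to 18 cm tall (1- to 4-leaf stage). After twelve to sixteen days in a greenhouse, injury was visually rated against untreated controls from 0 (no effect) to 10 (complete control).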

wild oat = experiment: Test B pre/postemergence wild oat; type: in vivo, Avena fatua; settings: Preemergence
How it was run: as §1

velvetleaf = experiment: Test B pre/postemergence velvetleaf; type: in vivo, Abutilon theophrasti; settings: Preemergence
How it was run: as §1

surinam grass = experiment: Test B pre/postemergence surinam grass; type: in vivo, Brachiaria decumbens; settings: Preemergence
How it was run: as §1

wheat = experiment: Test B pre/postemergence wheat; type: in vivo, Triticum aestivum; settings: Preemergence
How it was run: as §1

soybean = experiment: Test B pre/postemergence soybean; type: in vivo, Glycine max; settings: Preemergence
How it was run: as §1

morningglory = experiment: Test B pre/postemergence morningglory; type: in vivo, Ipomoea hederacea; settings: Preemergence
How it was run: as §1

crabgrass = experiment: Test B pre/postemergence crabgrass; type: in vivo, Digitaria sanguinalis; settings: Preemergence
How it was run: as §1

rice = experiment: Test B flood test rice; type: in vivo, Oryza sativa
How it was run: (§2)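 Plants were grown to the 2-leaf stage before treatment with test chemical, then held in a greenhouse for twelve to sixteen days. Injury was visually rated against untreated controls on a 0–10 scale, where 0 is no effect and 10 is complete control.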

bedstraw = experiment: Test B pre/postemergence bedstraw; type: in vivo, Galium aparine; settings: Preemergence
How it was run: as §1

purple nutsedge = experiment: Test B pre/postemergence purple nutsedge; type: in vivo, Cyperus rotundus; settings: Preemergence
How it was run: as §1

corn = experiment: Test B pre/postemergence corn; type: in vivo, Zea mays; settings: Preemergence
How it was run: as §1

duck salad = experiment: Test B flood test duck salad; type: in vivo, Heteranthera limosa
How it was run: as §2

blackgrass = experiment: Test B pre/postemergence blackgrass; type: in vivo, Alopecurus myosuroides; settings: Preemergence
How it was run: as §1

pigweed = experiment: Test B pre/postemergence pigweed; type: in vivo, Amaranthus retroflexus; settings: Preemergence
How it was run: as §1

giant foxtail = experiment: Test B pre/postemergence giant foxtail; type: in vivo, Setaria faberii; settings: Preemergence
How it was run: as §1

bamyardgrass = experiment: Test B flood test barnyardgrass; type: in vivo, Echinochloa crus-galli
How it was run: as §2

smallflower flatsedge = experiment: Test B flood test smallflower flatsedge; type: in vivo, Cyperus difformis
How it was run: as §2

rape = experiment: Test B pre/postemergence rape; type: in vivo, Brassica napus; settings: Preemergence
How it was run: as §1

sugar beet = experiment: Test B pre/postemergence sugar beet; type: in vivo, Beta vulgaris; settings: Preemergence
How it was run: as §1

[1] = Rate 62 g/ha, scale of 0 to 10 where 0 is no effect and 10 is complete control
[2] = Rate 125 g/ha, scale of 0 to 10 where 0 is no effect and 10 is complete control
[3] = Rate 250 g/ha, scale 0 (no effect) to 10 (complete control)
[4] = Rate 500 g/ha, scale 0 to 10 (0 no effect, 10 complete control)
[5] = Pre-emergence, Rate 62 g/ha, scale 0 to 10, 0 is no effect, 10 is complete control
[6] = Rate 125 g/ha, Pre-emergence section (flood test species), scale 0 to 10, 0 no effect, 10 complete control
[7] = Rate 250 g/ha, Pre-emergence (flood test species), scale 0 to 10, 0 is no effect, 10 is complete control
[8] = Rate 500 g/ha, Pre-emergence section of Table B, 0 to 10 scale (0 no effect, 10 complete control)

**Q.** How did the “Cocklebur plant response rating” value (cocklebur; [1]) turn out when `CC(C)N(C(=O)n1oc(=O)n(C(C)C2=NOCC2)c1=O)c1ccc(F)cc1` (racemic) [Compound 721] was run?
**A.** 0

**Q.** And the “Plant response rating, Cocklebur” value (cocklebur; [2])?
**A.** 0

**Q.** What about the “Cocklebur plant response rating” value (cocklebur; [3]) of the same compound?
**A.** 2

**Q.** What about the “Cocklebur plant response rating” value (cocklebur; [4]) of the same compound?
**A.** 2

**Q.** And the “Wild oats plant response rating” value (wild oat; [1])?
**A.** 6

**Q.** What about the “Plant response rating, Wild oats” value (wild oat; [2]) of the same compound?
**A.** 8

**Q.** What about the “Wild oats plant response rating” value (wild oat; [3]) of the same compound?
**A.** 8

**Q.** What about the “Wild oats plant response rating” value (wild oat; [4]) of the same compound?
**A.** 10

**Q.** And the “Velvetleaf plant response rating” value (velvetleaf; [1])?
**A.** 0

**Q.** What about the “Plant response rating, Velvetleaf” value (velvetleaf; [2]) of the same compound?
**A.** 5

**Q.** And the “Velvetleaf plant response rating” value (velvetleaf; [3])?
**A.** 8

**Q.** What about the “Velvetleaf plant response rating” value (velvetleaf; [4]) of the same compound?
**A.** 10

**Q.** And the “B. signalgrass plant response rating” value (surinam grass; [1])?
**A.** 7

**Q.** What about the “Plant response rating, B. signalgrass” value (surinam grass; [2]) of the same compound?
**A.** 8

**Q.** What about the “B. signalgrass plant response rating” value (surinam grass; [3]) of the same compound?
**A.** 8

**Q.** What about the “B. signalgrass plant response rating” value (surinam grass; [4]) of the same compound?
**A.** 10

**Q.** What about the “Wheat plant response rating” value (wheat; [1]) of the same compound?
**A.** 0

**Q.** And the “Plant response rating, Wheat” value (wheat; [2])?
**A.** 3

**Q.** And the “Wheat plant response rating” value (wheat; [3])?
**A.** 3

**Q.** And the “Wheat plant response rating” value (wheat; [4])?
**A.** 8

**Q.** And the “Soybean plant response rating” value (soybean; [1])?
**A.** 0

**Q.** What about the “Plant response rating, Soybean” value (soybean; [2]) of the same compound?
**A.** 0

**Q.** What about the “Soybean plant response rating” value (soybean; [3]) of the same compound?
**A.** 0

**Q.** And the “Soybean plant response rating” value (soybean; [4])?
**A.** 7

**Q.** What about the “Morningglory plant response rating” value (morningglory; [1]) of the same compound?
**A.** 1

**Q.** What about the “Plant response rating, Morningglory” value (morningglory; [2]) of the same compound?
**A.** 2

**Q.** And the “Morningglory plant response rating” value (morningglory; [3])?
**A.** 2

**Q.** What about the “Morningglory plant response rating” value (morningglory; [4]) of the same compound?
**A.** 5

**Q.** And the “Crabgrass plant response rating” value (crabgrass; [1])?
**A.** 9

**Q.** What about the “Plant response rating, Crabgrass” value (crabgrass; [2]) of the same compound?
**A.** 9

**Q.** What about the “Crabgrass plant response rating” value (crabgrass; [3]) of the same compound?
**A.** 9

**Q.** And the “Crabgrass plant response rating” value (crabgrass; [4])?
**A.** 9

**Q.** What about the “Rice plant response rating” value (rice; [5]) of the same compound?
**A.** 0

**Q.** What about the “Rice plant response rating” value (rice; [6]) of the same compound?
**A.** 0

**Q.** And the “Rice plant response rating” value (rice; [7])?
**A.** 0

**Q.** And the “Rice plant response rating” value (rice; [8])?
**A.** 0

**Q.** What about the “Bedstraw plant response rating” value (bedstraw; [1]) of the same compound?
**A.** 3

**Q.** And the “Plant response rating, Bedstraw” value (bedstraw; [2])?
**A.** 10

**Q.** And the “Bedstraw plant response rating” value (bedstraw; [3])?
**A.** 10

**Q.** And the “Bedstraw plant response rating” value (bedstraw; [4])?
**A.** 10

**Q.** What about the “Nutsedge plant response rating” value (purple nutsedge; [1]) of the same compound?
**A.** 0

**Q.** What about the “Plant response rating, Nutsedge” value (purple nutsedge; [2]) of the same compound?
**A.** 0

**Q.** And the “Nutsedge plant response rating” value (purple nutsedge; [3])?
**A.** 0

**Q.** What about the “Nutsedge plant response rating” value (purple nutsedge; [4]) of the same compound?
**A.** 3

**Q.** And the “Corn plant response rating” value (corn; [1])?
**A.** 0

**Q.** What about the “Plant response rating, Corn” value (corn; [2]) of the same compound?
**A.** 3

**Q.** What about the “Corn plant response rating” value (corn; [3]) of the same compound?
**A.** 5

**Q.** And the “Corn plant response rating” value (corn; [4])?
**A.** 8

**Q.** And the “Ducksalad plant response rating” value (duck salad; [5])?
**A.** 0

**Q.** What about the “Ducksalad plant response rating” value (duck salad; [6]) of the same compound?
**A.** 0

**Q.** And the “Ducksalad plant response rating” value (duck salad; [7])?
**A.** 0

**Q.** And the “Ducksalad plant response rating” value (duck salad; [8])?
**A.** 0

**Q.** And the “Blackgrass plant response rating” value (blackgrass; [1])?
**A.** 9

**Q.** And the “Plant response rating, Blackgrass” value (blackgrass; [2])?
**A.** 10

**Q.** What about the “Blackgrass plant response rating” value (blackgrass; [3]) of the same compound?
**A.** 10

**Q.** And the “Blackgrass plant response rating” value (blackgrass; [4])?
**A.** 10

**Q.** What about the “Redroot pigweed plant response rating” value (pigweed; [1]) of the same compound?
**A.** 9

**Q.** What about the “Plant response rating, Redroot pigweed” value (pigweed; [2]) of the same compound?
**A.** 10

**Q.** And the “Redroot pigweed plant response rating” value (pigweed; [3])?
**A.** 10

**Q.** What about the “Redroot pigweed plant response rating” value (pigweed; [4]) of the same compound?
**A.** 10

**Q.** What about the “Giant foxtail plant response rating” value (giant foxtail; [1]) of the same compound?
**A.** 9

**Q.** And the “Plant response rating, Giant foxtail” value (giant foxtail; [2])?
**A.** 10

**Q.** And the “Giant foxtail plant response rating” value (giant foxtail; [3])?
**A.** 10

**Q.** What about the “Giant foxtail plant response rating” value (giant foxtail; [4]) of the same compound?
**A.** 10

**Q.** What about the “Barnyardgrass plant response rating” value (bamyardgrass; [5]) of the same compound?
**A.** 0

**Q.** What about the “Barnyardgrass plant response rating” value (bamyardgrass; [6]) of the same compound?
**A.** 0

**Q.** What about the “Barnyardgrass plant response rating” value (bamyardgrass; [7]) of the same compound?
**A.** 0

**Q.** And the “Barnyardgrass plant response rating” value (bamyardgrass; [8])?
**A.** 0

**Q.** What about the “S. Flatsedge plant response rating” value (smallflower flatsedge; [5]) of the same compound?
**A.** 0

**Q.** What about the “S. Flatsedge plant response rating” value (smallflower flatsedge; [6]) of the same compound?
**A.** 0

**Q.** And the “S. Flatsedge plant response rating” value (smallflower flatsedge; [7])?
**A.** 0

**Q.** What about the “S. Flatsedge plant response rating” value (smallflower flatsedge; [8]) of the same compound?
**A.** 0

**Q.** And the “Rape plant response rating” value (rape; [1])?
**A.** 1

**Q.** What about the “Plant response rating, Rape” value (rape; [2]) of the same compound?
**A.** 9

**Q.** What about the “Rape plant response rating” value (rape; [3]) of the same compound?
**A.** 9

**Q.** And the “Rape plant response rating” value (rape; [4])?
**A.** 10

**Q.** And the “Sugarbeets plant response rating” value (sugar beet; [1])?
**A.** 3

**Q.** And the “Plant response rating, Sugarbeets” value (sugar beet; [2])?
**A.** 7

**Q.** And the “Sugarbeets plant response rating” value (sugar beet; [3])?
**A.** 7

**Q.** And the “Sugarbeets plant response rating” value (sugar beet; [4])?
**A.** 8

Reference: patent US6737383B1, “Herbicidal oxadiazolidines” (priority 1999, dated 2004)
